According to patent US11564986B2, “Approach for treatment of cancer via immunomodulation by using talabostat” (ONKOSXCEL THERAPEUTICS, LLC, priority 2015, dated 2023):

Key:
[1] = tested on: melanoma; details: monotherapy or combination; cited from earlier work
[2] = in vivo; cited from earlier work
[3] = tested on: MC38 mouse colon cancer cell line; assay: Antitumor effect in MC38 mouse model of colon adenocarcinoma (tumor volume, tolerability; Study 1 and Study 2); type: in vivo
Excerpt: (§1) Six to seven-week-old female C57BL/6 mice were used in the studies. Mice received food and water ad libitum. The study protocol, the procedures involving the care and use of animals were reviewed and approved by the Institutional Animal Care and Use Committee (IACUC) to ensure compliance with the regulations of the Association for Assessment and Accreditation of Laboratory Animal Care (AAALAC).
MC38 mouse colon cancer cell line was provided by GenScript. The tumor cells were maintained as monolayer culture in DMEM supplemented with 10% fetal bovine serum (FBS), 1% Glutamax® and 1% Penicillin-Streptomycin at 37° C. in an atmosphere with 5% CO2. The cells were routinely subcultured every 2 days to maintain growth at exponential phase. The tumor cells growing in exponential growth phase were harvested by trypsinization, followed by centrifugation at 335×g relative centrifugal force (RCF) in a centrifuge. The supernatant was subsequently removed by aspiration. Cell pellet was resuspended in approximately 10× volume of cell culture medium and counted. The cell suspension was centrifuged again and processed as above and finally resuspended in HBSS−/− at a density of 1×10^7 cells per ml. Cell viability was determined to be 95% by trypan blue staining. Cell suspensions were implanted in the subcutaneous space of the flank of mice of female C57BL/6 mice (2.0×10^6 MC-38 cells in 0.2 mL Hanks Balanced Salt Solution). Mice were inoculated subcutaneously in the right lower flank (near the dorsal thigh region) with a single volume of 0.1 ml cell suspension containing about 1×10^6 cells.
Tumor size was measured twice per week in 2 dimensions using a caliper (recorded up to one decimal point). Tumor volume, expressed in mm^3, was calculated using the following formula, in which “a” and “b” were the long and the short diameters of a tumor, respectively. V (mm^3)=(a×b^2)/2
Animals were weighed and randomized into treatment groups when the mean tumor size was around 120 mm^3 on Day 0.
Data related to tumor volume, tumor weight, and body weight were presented as mean and the standard error of the mean (SEM). Statistical analyses were conducted using Student's t-test. P<0.05 was considered statistically significant. * and ** indicate P<0.05 and P<0.01, respectively.
The antitumor effect of single dose (qd) as well as twice daily (bid) administration of Talabostat alone and in combination with PD-1 antagonist at various dose schedules was evaluated in MC-38 (murine colon) tumor bearing mice. After the tumors were established, mice were sorted into various groups with a mean tumor volume of ˜200 mm^3. The test article and antibody were administered according to the dosing schedules described in Tables 5 and 6.

[4] = tested on: CT26 tumor cells; assay: Immunophenotyping of CT26 tumor samples by quantitative PCR (NK cells, perforin, granzyme B, Tregs); type: in vivo; details: CT26, day 7 after first dosing; Talabostat 20 μg/mouse qd, PD-1 antagonist 5 mg/kg
Protocol: as §1, with “Mice (Balb/c) corresponding” for “Six”, “20±2 g weight,” for “seven-week-old female C57BL/6 mice were used in the studies. Mice”
Tumor Model The CT26 tumor cells were cultured in RPMI1640 medium supplemented with 10% heat inactivated fetal bovine serum, 100 U/ml penicillin and 100 μg/ml streptomycin, at 37° C. in an incubator of 5% CO2. The tumor cells were routinely subcultured three times per week. The cells growing in an exponential growth phase were harvested and counted for tumor inoculation. […]
The immuno-modulatory effect of the single dose (20 μg/mouse qd) administration of Talabostat alone and in combination with PD-1 antagonist (5 mg/kg), at various dose schedules was analysed by collecting the blood and the tumor samples 7 days after the first dosing the mice.
Tumor RNA samples were extracted from the frozen tumor tissues using the Trizol reagent. […] Quantitative PCR were conducted using a master mix from Invitrogen (Cat. #4309155) on an ABI 7900HT Fast Real-Time PCR System. The results were analyzed using a Delta Delta Ct method. […]

[5] = tested on: pancreatic and lung cancer; details: Talabostat alone or with cytokine or chemotherapeutic agents; cited from earlier work

| Compound | Response rate in melanoma patients [1] [%] | Most common adverse events [2] | Mean (±SEM) tumor volume ([3]; Study 1, MC38, Day 13, Talabostat 10 μg twice daily p.o.) | Mean (±SEM) tumor volume ([3]; Study 1, MC38, Day 13, Talabostat 20 μg twice daily p.o.) | Antitumor effect compared with the vehicle control group ([3]; Study 1, MC38, single treatment groups) | Mean (±SEM) tumor volume ([3]; Study 2, MC38, Day 11, Talabostat 2.5 μg BID p.o.) | Mean (±SEM) tumor volume ([3]; Study 2, MC38, Day 11, Talabostat 5 μg BID p.o.) | Mean (±SEM) tumor volume ([3]; Study 2, MC38, Day 11, Talabostat 10 μg BID p.o.) | Mean (±SEM) tumor volume ([3]; Study 2, MC38, Day 11, Talabostat 20 μg QD p.o.) | NK cell activation, perforin (Pfr1) release in tumor (relative mRNA) [4] | Primary and secondary endpoints in clinical trials [5] |
| --- | --- | --- | --- | --- | --- | --- | --- | --- | --- | --- | --- |
| Nivolumab: anti-PD-1 antibody, CAS Registry Number 946414-94-4 | 32 |  |  |  |  |  |  |  |  |  |  |
| Ipilimumab: CTLA-4 antagonist; human monoclonal antibody, CAS No. 477202-00-9 | 11 |  |  |  |  |  |  |  |  |  |  |
| CC(C)[C@H](N)C(=O)N1CCC[C@H]1B(O)O [Talabostat, [(2R)-I-I [(2S)-2-amino-3-methyl-1-oxobutyl]-2-pyrrolidinyl] boronic acid] |  | edema/peripheral swelling, hypotension, hypovolemia, and dizziness | 1.66 (±0.48) cc | 1.30 (±0.42) cc | significant better effect | 3.2 (±0.48) cc | 2.9 (±0.42) cc | 2.9 (±0.18) cc | 2.0 (±0.43) cc | activation in terms of release of perforin | unable to meet primary as well as secondary endpoints |
